According to US9914730B2, “Azaquinazoline inhibitors of Atypical protein Kinase C” (Ignyta, Inc., priority 2012, dated 2018):

Target: T1, full-length human PKCι (Homo sapiens, UniProt P41743)
T1 construct: Recombinant, full-length human PKCι expressed in Sf21 insect cells is also commercially available; purchased; host or cells: Sf21 insect cells
T1 sequence (P41743 1-596): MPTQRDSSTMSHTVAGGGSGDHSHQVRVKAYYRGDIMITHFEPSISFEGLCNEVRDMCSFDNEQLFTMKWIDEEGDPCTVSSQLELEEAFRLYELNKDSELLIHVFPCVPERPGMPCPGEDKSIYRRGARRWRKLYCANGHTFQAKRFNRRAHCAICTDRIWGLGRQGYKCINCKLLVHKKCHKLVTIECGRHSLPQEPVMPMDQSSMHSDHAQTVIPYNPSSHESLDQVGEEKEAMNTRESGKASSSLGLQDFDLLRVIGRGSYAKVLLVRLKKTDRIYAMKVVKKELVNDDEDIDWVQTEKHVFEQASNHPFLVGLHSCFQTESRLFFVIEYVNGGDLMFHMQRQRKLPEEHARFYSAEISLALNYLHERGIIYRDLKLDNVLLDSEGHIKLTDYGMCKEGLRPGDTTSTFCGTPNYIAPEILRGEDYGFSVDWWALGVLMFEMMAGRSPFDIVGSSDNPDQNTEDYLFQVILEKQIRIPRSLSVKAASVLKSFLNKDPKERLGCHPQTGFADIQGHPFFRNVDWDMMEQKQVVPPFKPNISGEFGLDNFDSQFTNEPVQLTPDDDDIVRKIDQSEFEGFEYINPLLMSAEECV
Assay: PKCι IC50 IMAP assay, full-length PKCι at 150 μM ATP
Type: biochemical
Conditions: read-out: IC50 in IMAP assay against full length PKCi at 150 μM ATP
Summary of the method: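 IMAP fluorescence polarisation (ex 485/em 530 nm) read-out; % inhibition set from no-compound (0%) and no-enzyme (100%) controls, IC50 from dose-response curve fit. Sf21-expressed full-length enzyme ~15 pM, 100 nM FAM peptide, ATP 150 μM (5× KM^APP), 60 min at RT.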

IC50	Compound
< 100 nM	CC(C)(c1cc2c(-c3nc(N4CCNCC4)c4c(C5CCC5)cncc4n3)ccnc2[nH]1)C(F)(F)F [Example 2182, 5-Cyclobutyl-4-piperazin-1-yl-2-[2-(2,2,2-trifluoro-1,1-dimethyl-ethyl)-1H-pyrrolo[2,3-b]pyridin-4-yl]-pyrido[3,4-d]pyrimidine]
< 100 nM	FC(F)(F)C1(c2cc3c(-c4nc(N5CCNCC5)c5c(C6CCC6)cncc5n4)ccnc3[nH]2)CCC1 [Example 2183, 5-Cyclobutyl-4-piperazin-1-yl-2-[2-(1-trifluoromethyl-cyclobutyl)-1H-pyrrolo[2,3-b]pyridin-4-yl]-pyrido[3,4-d]pyrimidine]
< 100 nM	c1cc(-c2nc(N3CCNCC3)c3c(C4CCC4)cncc3n2)c2cc(C3CCOC3)[nH]c2n1 (stereo not drawn) [Example 2184, 5-Cyclobutyl-4-piperazin-1-yl-2-[2-(tetrahydro-furan-3-yl)-1H-pyrrolo[2,3-b]pyridin-4-yl]-pyrido[3,4-d]pyrimidine]
< 100 nM	c1cc(-c2nc(N3CCNCC3)c3c(C4CCC4)cncc3n2)c2cc(C3CCCO3)[nH]c2n1 (stereo not drawn) [Example 2185, 5-Cyclobutyl-4-piperazin-1-yl-2-[2-(tetrahydro-furan-2-yl)-1H-pyrrolo[2,3-b]pyridin-4-yl]-pyrido[3,4-d]pyrimidine]
100 to 1000 nM	Fc1cnc(Nc2cc(-c3nc(NC4CCNCC4F)c4c(C5CC5)cncc4n3)ccn2)c(F)c1 (stereo not drawn) [Example 2186, {5-Cyclopropyl-2-[2-(3,5-difluoro-pyridin-2-ylamino)-pyridin-4-yl]-pyrido[3,4-d]pyrimidin-4-yl}-(3-fluoro-piperidin-4-yl)-amine]
100 to 1000 nM	Fc1cc(F)c(Nc2cc(-c3nc(N4CCNCC4)c4c(C5CC5)cnc(C5CC5)c4n3)ccn2)nc1F [Example 2187, [4-(5,8-Dicyclopropyl-4-piperazin-1-yl-pyrido[3,4-d]pyrimidin-2-yl)-pyridin-2-yl]-(3,5,6-trifluoro-pyridin-2-yl)-amine]
100 to 1000 nM	Fc1cnc(Nc2cc(-c3nc(N4CCNCC4)c4c(C5CC5)cnc(C5CC5)c4n3)ccn2)c(F)c1 [Example 2188, [4-(5,8-Dicyclopropyl-4-piperazin-1-yl-pyrido[3,4-d]pyrimidin-2-yl)-pyridin-2-yl]-(3,5-difluoro-pyridin-2-yl)-amine]
100 to 1000 nM	Fc1cccc(F)c1Nc1cc(-c2nc(N3CCNCC3)c3c(C4CC4)cnc(C4CC4)c3n2)ccn1 [Example 2189, [4-(5,8-Dicyclopropyl-4-piperazin-1-yl-pyrido[3,4-d]pyrimidin-2-yl)-pyridin-2 yl]-(2,6-difluoro-phenyl)-amine]

More lines, now with the values behind:

Compound	IC50
CN(c1nc(-c2ccnc(Nc3nc(F)c(F)cc3F)c2)nc2cncc(C3CCC3)c12)C1CCNCC1 [Example 2163, {5-Cyclobutyl-2-[2-(3,5,6-trifluoro-pyridin-2-ylamino)-pyridin-4-yl]-pyrido[3,4-d]pyrimidin-4-yl}-methyl-piperidin-4-yl-amine]	< 100 nM
OC[C@@H](Nc1cc(-c2nc(N3CCNCC3)c3c(C4CC4)cncc3n2)ccn1)c1ccccc1 [Example 2164, (S)-2-[4-(5-Cyclopropyl-4-piperazin-1-yl-pyrido[3,4-d]pyrimidin-2-yl)-pyridin-2-ylamino]-2-phenyl-ethanol]	< 100 nM
C[C@@H](Nc1cc(-c2nc(N3CCNCC3)c3c(C4CC4)cncc3n2)ccn1)c1cccc2ccccc12 [Example 2165, [4-(5-Cyclopropyl-4-piperazin-1-yl-pyrido[3,4-d]pyrimidin-2-yl)-pyridin-2-yl]-((R)-1-naphthalen-1-yl-ethyl)-amine]	< 100 nM
FC(F)(CNc1cc(-c2nc(N3CCNCC3)c3c(C4CC4)cncc3n2)ccn1)c1ccccc1 [Example 2166, [4-(5-Cyclopropyl-4-piperazin-1-yl-pyrido[3,4-d]pyrimidin-2-yl)-pyridin-2-yl]-(2,2-difluoro-2-phenyl-ethyl)-amine]	< 100 nM
CN(CC1CCNCC1)c1nc(-c2ccnc(Nc3ncc(F)cc3F)c2)nc2cncc(C3CC3)c12 [Example 2167, {5-Cyclopropyl-2-[2-(3,5-difluoro-pyridin-2-ylamino)-pyridin-4-yl]-pyrido[3,4-d]pyrimidin-4-yl}-methyl-piperidin-4-ylmethyl-amine]	< 100 nM
Fc1cnc(Nc2cc(-c3nc(NC4CCOCC4)c4c(C5CC5)cncc4n3)ccn2)c(F)c1 [Example 2168, {5-Cyclopropyl-2-[2-(3,5-difluoro-pyridin-2-ylamino)-pyridin-4-yl]-pyrido[3,4-d]pyrimidin-4-yl}-(tetrahydro-pyran-4-yl)-amine]	10000 to 40000 nM
CN(c1nc(-c2ccnc(Nc3nc(F)c(F)cc3F)c2)nc2c(Cl)ncc(C3CC3)c12)C1CCNCC1 [Example 2169, {8-Chloro-5-cyclopropyl-2-[2-(3,5,6-trifluoro-pyridin-2-ylamino)-pyridin-4-yl]-pyrido[3,4-d]pyrimidin-4-yl}-methyl-piperidin-4-yl-amine]	< 100 nM
CN(c1nc(-c2ccnc(Nc3ncc(F)cc3F)c2)nc2c(Cl)ncc(C3CC3)c12)C1CCNCC1 [Example 2170, {8-Chloro-5-cyclopropyl-2-[2-(3,5-difluoro-pyridin-2-ylamino)-pyridin-4-yl]-pyrido[3,4-d]pyrimidin-4-yl}-methyl-piperidin-4-yl-amine]	< 100 nM
Fc1cc(Cl)cnc1Nc1cc(-c2nc(N3CCNCC3)c3c(C4CC4)cncc3n2)ccn1 [Example 2171, (5-Chloro-3-fluoro-pyridin-2-yl)-[4-(5-cyclopropyl-4-piperazin-1-yl-pyrido[3,4-d]pyrimidin-2-yl)-pyridin-2-yl]-amine]	< 100 nM
CN(c1nc(-c2ccnc(Nc3ncc(F)cc3F)c2)nc2cncc(C3CC3)c12)C1CCOCC1 [Example 2172, {5-Cyclopropyl-2-[2-(3,5-difluoro-pyridin-2-ylamino)-pyridin-4-yl]-pyrido[3,4-d]pyrimidin-4-yl}-methyl-(tetrahydro-pyran-4-yl)-amine]	1000 to 10000 nM
Fc1cnc(Nc2cc(-c3nc(N4CCC(C5CCOCC5)C4)c4c(C5CC5)cncc4n3)ccn2)c(F)c1 (stereo not drawn) [Example 2173, (4-{5-Cyclopropyl-4-[3-(tetrahydro-pyran-4-yl)-pyrrolidin-1-yl]-pyrido[3,4-d]pyrimidin-2-yl}-pyridin-2-yl)-(3,5-difluoro-pyridin-2-yl)-amine]	1000 to 10000 nM
CC1(Nc2nc(-c3ccnc(Nc4ncc(F)cc4F)c3)nc3cncc(C4CC4)c23)CCNCC1 [Example 2174, {5-Cyclopropyl-2-[2-(3,5-difluoro-pyridin-2-ylamino)-pyridin-4-yl]-pyrido[3,4-d]pyrimidin-4-yl}-(4-methyl-piperidin-4-yl)-amine]	< 100 nM
CC1(C)CNCCC1Nc1nc(-c2ccnc(Nc3ncc(F)cc3F)c2)nc2cncc(C3CC3)c12 (stereo not drawn) [Example 2175, {5-Cyclopropyl-2-[2-(3,5-difluoro-pyridin-2-ylamino)-pyridin-4-yl]-pyrido[3,4-d]pyrimidin-4-yl}-(3,3-dimethyl-piperidin-4-yl)-amine]	< 100 nM
CC1(C)CNCCC1Nc1nc(-c2ccnc(Nc3nc(F)c(F)cc3F)c2)nc2cncc(C3CC3)c12 (stereo not drawn) [Example 2176, {5-Cyclopropyl-2-[2-(3,5,6-trifluoro-pyridin-2-ylamino)-pyridin-4-yl]-pyrido[3,4-d]pyrimidin-4-yl}-(3,3-dimethyl-piperidin-4-yl)-amine]	< 100 nM
CC1(C)CC(Nc2cc(-c3nc(N4CCNCC4)c4c(C5CC5)cncc4n3)ccn2)c2ccccc21 (stereo not drawn) [Example 2177, [4-(5-Cyclopropyl-4-piperazin-1-yl-pyrido[3,4-d]pyrimidin-2-yl)-pyridin-2-yl]-(3,3-dimethyl-indan-1-yl)-amine]	< 100 nM
Fc1cc(F)c(Nc2cc(-c3nc(N4CCNCC4)c4c(C5CC5)cnc(Cl)c4n3)ccn2)nc1F [Example 2178, [4-(8-Chloro-5-cyclopropyl-4-piperazin-1-yl-pyrido[3,4-d]pyrimidin-2-yl)-pyridin-2-yl]-(3,5,6,-trifluoro-pyridin-2-yl)-amine]	< 100 nM
Fc1cccnc1-c1cc2c(-c3nc(N4CCNCC4)c4c(C5CC5)cncc4n3)ccnc2[nH]1 [Example 2179, 5-Cyclopropyl-2-[2-(3-fluoro-pyridin-2-yl)-1H-pyrrolo[2,3-b]pyridin-4-yl]-4-piperazin-1-yl-pyrido[3,4-d]pyrimidine]	< 100 nM
Fc1cccnc1-c1cc2c(-c3nc(N4CCNCC4)c4c(C5CCC5)cncc4n3)ccnc2[nH]1 [Example 2180, 5-Cyclobutyl-2-[2-(3-fluoro-pyridin-2-yl)-1H-pyrrolo[2,3-b]pyridin-4-yl]-4-piperazin-1-yl-pyrido[3,4-d]pyrimidine]	< 100 nM
c1ccc(C2(c3cc4c(-c5nc(N6CCNCC6)c6c(C7CCC7)cncc6n5)ccnc4[nH]3)CCC2)cc1 [Example 2181, 5-Cyclobutyl-2-[2-(1-phenyl-cyclobutyl)-1H-pyrrolo[2,3-b]pyridin-4-yl]-4-piperazin-1-yl-pyrido[3,4-d]pyrimidine]	< 100 nM
